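Protocol summary: plate cells (96-well), add compound at 5 concentrations, incubate 48 h, interpolate endpoints linearly. GI50 is the concentration that inhibits growth by half. TGI: concentration producing complete growth inhibition.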
Experiments:
Assay in all cases: growth of human tumour cells (NCI), 48 h
786-0 renal = tested on: 786-0 renal
A498 renal = tested on: A498 renal
A549 NSCLC = tested on: A549 NSCLC
ACHN renal = tested on: ACHN renal
BT-549 breast = tested on: BT-549 breast
CAKI-1 renal = tested on: CAKI-1 renal
CCRF-CEM leukemia = tested on: CCRF-CEM leukemia
COLO 205 colon = tested on: COLO 205 colon
DU-145 prostate = tested on: DU-145 prostate
EKVX NSCLC = tested on: EKVX NSCLC
HCC-2998 colon = tested on: HCC-2998 colon
HCT-116 colon = tested on: HCT-116 colon
HCT-15 colon = tested on: HCT-15 colon
HL-60(TB) leukemia = tested on: HL-60(TB) leukemia
HOP-62 NSCLC = tested on: HOP-62 NSCLC
HOP-92 NSCLC = tested on: HOP-92 NSCLC
HS 578T breast = tested on: HS 578T breast
HT29 colon = tested on: HT29 colon
IGROV1 ovarian = tested on: IGROV1 ovarian
K-562 leukemia = tested on: K-562 leukemia
KM12 colon = tested on: KM12 colon
LOX IMVI melanoma = tested on: LOX IMVI melanoma
M14 melanoma = tested on: M14 melanoma
MALME-3M melanoma = tested on: MALME-3M melanoma
MCF7 breast = tested on: MCF7 breast
MDA-MB-231 breast = tested on: MDA-MB-231 breast
MDA-MB-435 = tested on: MDA-MB-435
MOLT-4 leukemia = tested on: MOLT-4 leukemia
NCI-H226 lung = tested on: NCI-H226 lung
NCI-H460 lung = tested on: NCI-H460 lung
NCI-H522 lung = tested on: NCI-H522 lung
NCI/ADR-RES ovarian = tested on: NCI/ADR-RES ovarian
OVCAR-3 ovarian = tested on: OVCAR-3 ovarian
OVCAR-4 ovarian = tested on: OVCAR-4 ovarian
OVCAR-5 ovarian = tested on: OVCAR-5 ovarian
OVCAR-8 ovarian = tested on: OVCAR-8 ovarian
PC-3 prostate = tested on: PC-3 prostate
RPMI-8226 leukemia = tested on: RPMI-8226 leukemia
RXF 393 renal = tested on: RXF 393 renal
SF-268 CNS = tested on: SF-268 CNS
SF-295 CNS = tested on: SF-295 CNS
SF-539 CNS = tested on: SF-539 CNS
SK-MEL-2 melanoma = tested on: SK-MEL-2 melanoma
SK-MEL-28 melanoma = tested on: SK-MEL-28 melanoma
SK-MEL-5 melanoma = tested on: SK-MEL-5 melanoma
SK-OV-3 ovarian = tested on: SK-OV-3 ovarian
SN12C renal = tested on: SN12C renal
SNB-19 CNS = tested on: SNB-19 CNS
SNB-75 CNS = tested on: SNB-75 CNS
SR leukemia = tested on: SR leukemia
SW-620 colon = tested on: SW-620 colon
T-47D breast = tested on: T-47D breast
TK-10 renal = tested on: TK-10 renal
U251 CNS = tested on: U251 CNS
UACC-257 melanoma = tested on: UACC-257 melanoma
UACC-62 melanoma = tested on: UACC-62 melanoma
UO-31 renal = tested on: UO-31 renal

`CC(=O)N(O)CCCCCNC(=O)CCC(=O)N(O)CCCCCNC(=O)CCC(=O)N(O)CCCCCN(CCCCCCCCCC[P+](c1ccccc1)(c1ccccc1)c1ccccc1)CCCCCCCCCC[P+](c1ccccc1)(c1ccccc1)c1ccccc1` showed a GI50 (786-0 renal) of 7.1 µM, a TGI (786-0 renal) of 26.6 µM and a GI50 (A498 renal) of 18.9 µM. For the same compound, the TGI (A498 renal) was 81.2 µM, the GI50 (A549 NSCLC) was 3.47 µM and the TGI (A549 NSCLC) was over 100 µM. The GI50 (ACHN renal) was 16.1 µM, the TGI (ACHN renal) was 69.9 µM and the GI50 (BT-549 breast) was 2.15 µM. It also gave a TGI (BT-549 breast) of 9 µM, a GI50 (CAKI-1 renal) of 10.8 µM and a TGI (CAKI-1 renal) of 24.4 µM. The GI50 (CCRF-CEM leukemia) was 2.5 µM, the TGI (CCRF-CEM leukemia) was 23.4 µM and the GI50 (COLO 205 colon) was 1.58 µM. It also gave a TGI (COLO 205 colon) of 3.55 µM, a GI50 (DU-145 prostate) of 5.21 µM and a TGI (DU-145 prostate) of 25.4 µM. For the same compound, the GI50 (EKVX NSCLC) was 1.35 µM, the TGI (EKVX NSCLC) was 13 µM and the GI50 (HCC-2998 colon) was 3.45 µM. For the same compound, the TGI (HCC-2998 colon) was 13.9 µM, the GI50 (HCT-116 colon) was 2.93 µM and the TGI (HCT-116 colon) was 23.8 µM. It also gave a GI50 (HCT-15 colon) of 14.6 µM, a TGI (HCT-15 colon) of 43.9 µM and a GI50 (HL-60(TB) leukemia) of 2.04 µM. For the same compound, the TGI (HL-60(TB) leukemia) was 6.01 µM, the GI50 (HOP-62 NSCLC) was 3.46 µM and the TGI (HOP-62 NSCLC) was 16.1 µM. It also gave a GI50 (HOP-92 NSCLC) of 1.49 µM, a TGI (HOP-92 NSCLC) of 6.82 µM and a GI50 (HS 578T breast) of 3.77 µM. The TGI (HS 578T breast) was 30.8 µM, the GI50 (HT29 colon) was 2.84 µM and the TGI (HT29 colon) was 11.4 µM. The GI50 (IGROV1 ovarian) was 2.83 µM, the TGI (IGROV1 ovarian) was 16.8 µM and the GI50 (K-562 leukemia) was 1.47 µM. It also gave a TGI (K-562 leukemia) of 15.4 µM, a GI50 (KM12 colon) of 3.43 µM and a TGI (KM12 colon) of 21.1 µM. The GI50 (LOX IMVI melanoma) was 3.21 µM, the TGI (LOX IMVI melanoma) was 10.2 µM and the GI50 (M14 melanoma) was 4.11 µM. The TGI (M14 melanoma) was 21.9 µM, the GI50 (MALME-3M melanoma) was 4.11 µM and the TGI (MALME-3M melanoma) was 20.3 µM. The GI50 (MCF7 breast) was 2.29 µM, the TGI (MCF7 breast) was 10.8 µM and the GI50 (MDA-MB-231 breast) was 4.13 µM. It also gave a TGI (MDA-MB-231 breast) of 19.6 µM, a GI50 (MDA-MB-435) of 2.76 µM and a TGI (MDA-MB-435) of 11.3 µM. For the same compound, the GI50 (MOLT-4 leukemia) was 3.52 µM, the TGI (MOLT-4 leukemia) was 18.9 µM and the GI50 (NCI-H226 lung) was 5.02 µM. For the same compound, the TGI (NCI-H226 lung) was 23.9 µM, the GI50 (NCI-H460 lung) was 2.38 µM and the TGI (NCI-H460 lung) was 11.5 µM. For the same compound, the GI50 (NCI-H522 lung) was 2.52 µM, the TGI (NCI-H522 lung) was 10.7 µM and the GI50 (NCI/ADR-RES ovarian) was 31.3 µM. The TGI (NCI/ADR-RES ovarian) was over 100 µM, the GI50 (OVCAR-3 ovarian) was 4.22 µM and the TGI (OVCAR-3 ovarian) was 23.2 µM. The GI50 (OVCAR-4 ovarian) was 2.73 µM, the TGI (OVCAR-4 ovarian) was 17.5 µM and the GI50 (OVCAR-5 ovarian) was 3.46 µM. It also gave a TGI (OVCAR-5 ovarian) of 15.5 µM, a GI50 (OVCAR-8 ovarian) of 3.07 µM and a TGI (OVCAR-8 ovarian) of 14.8 µM. For the same compound, the GI50 (PC-3 prostate) was 2.95 µM, the TGI (PC-3 prostate) was 13.4 µM and the GI50 (RPMI-8226 leukemia) was 2.12 µM. For the same compound, the TGI (RPMI-8226 leukemia) was 9.63 µM, the GI50 (RXF 393 renal) was 3.3 µM and the TGI (RXF 393 renal) was 14.5 µM. For the same compound, the GI50 (SF-268 CNS) was 4.6 µM, the TGI (SF-268 CNS) was 26.4 µM and the GI50 (SF-295 CNS) was 2.99 µM. The TGI (SF-295 CNS) was 14.1 µM, the GI50 (SF-539 CNS) was 2.8 µM and the TGI (SF-539 CNS) was 10.4 µM. The GI50 (SK-MEL-2 melanoma) was 2.61 µM, the TGI (SK-MEL-2 melanoma) was 7.86 µM and the GI50 (SK-MEL-28 melanoma) was 3.62 µM. It also gave a TGI (SK-MEL-28 melanoma) of 18.3 µM, a GI50 (SK-MEL-5 melanoma) of 3.65 µM and a TGI (SK-MEL-5 melanoma) of 15.8 µM. It also gave a GI50 (SK-OV-3 ovarian) of 2.3 µM, a TGI (SK-OV-3 ovarian) of 6.15 µM and a GI50 (SN12C renal) of 2.88 µM. It also gave a TGI (SN12C renal) of 11.1 µM, a GI50 (SNB-19 CNS) of 3.09 µM and a TGI (SNB-19 CNS) of 14.1 µM. The GI50 (SNB-75 CNS) was 2.69 µM, the TGI (SNB-75 CNS) was 11.4 µM and the GI50 (SR leukemia) was 2.71 µM. The TGI (SR leukemia) was 11.2 µM, the GI50 (SW-620 colon) was 4.18 µM and the TGI (SW-620 colon) was 16.5 µM. It also gave a GI50 (T-47D breast) of 1.78 µM, a TGI (T-47D breast) of 8.85 µM and a GI50 (TK-10 renal) of 9 µM. For the same compound, the TGI (TK-10 renal) was 34.2 µM, the GI50 (U251 CNS) was 2 µM and the TGI (U251 CNS) was 13 µM. The GI50 (UACC-257 melanoma) was 2.66 µM, the TGI (UACC-257 melanoma) was 10 µM and the GI50 (UACC-62 melanoma) was 3.35 µM. It also gave a TGI (UACC-62 melanoma) of 15.3 µM, a GI50 (UO-31 renal) of 16 µM and a TGI (UO-31 renal) of over 100 µM.

From PubChem BioAssay (NCI)
